Test system: RNA molecular beacon and Target RNA
Experiment: RNA annealing kinetics (molecular beacon and Target RNAs), stopped-flow fluorescence
Format: biochemical
Conditions: 30 °C
Protocol: Figure 2. CTD and RNA occupy the same rim binding site. […] The CTD linker is shown in purple, the acidic tip in red and the N-terminal FITC as a yellow star. Hfq core is shown in cyan, with basic rim patches in dark blue. […] (C) Reaction scheme for annealing an RNA molecular beacon to a target RNA (open bar) ([Hopkins et al., 2011]; [Panja et al., 2015]). (D) Progress curves for annealing 50 nM molecular beacon and 100 nM Target by 50 nM Hfq65 hexamer at 30°C, measured by stopped-flow fluorescence. See Figure 2—figure supplement 3 for further data. (E) Contribution of core residues to CTD binding. Interaction energy (Expected Energetic Contribution; EEC) in silico for a core residue in the Rosetta models (solid symbols and solid line; adjusted R^2 = 0.77) or the average annealing rates for Target and Target-A18 relative to Hfq65 (open symbols and dashed line; adjusted R^2 = 0.94) versus experimental CTD binding energy (∆∆G°) for each Hfq65 variant. The binding energy, ∆∆G° = –RTln(Kd^MUT/Kd), reflects the perturbation to CTD binding by a mutation in Hfq65. The interaction energy in silico or EEC is defined as the average energy of a tail–core interaction multiplied by the average number of tail–core interactions per model (Figure 1B, top and Equation 3). The relative annealing rate for Hfq65 variants, krel = kobs^MUT/kobs^WT, is <1 if the mutated residue is important for RNA annealing. Figure 2—figure supplement 1. SDS-PAGE of purified Hfq variants. […] Annealing of 100 nM Target RNA to 50 nM beacon RNA by Hfq65 and Hfq65 variants was measured by stopped flow fluorescence at 30°C in 1 × TNK buffer. […] The change in fluorescence emission intensity was normalized to the maximum fluorescence within an experiment. […]
To determine how much core residues that bind the CTD contribute to Hfq’s RNA annealing activity, we compared the effect of rim mutations on the rate of base pairing between an RNA molecular beacon and the 16 nt Target RNA by stopped-flow fluorescence spectroscopy (Figure 2C) ([Hopkins et al., 2011]). […]

| Substance | observed annealing rate of Hfq65 rim mutants (50 nM molecular beacon, 100 nM Target, Hfq65 variants, TNK buffer) | activity in single-turnover annealing assays (50 nM beacon, 100 nM Target RNA, 0–200 nM Hfq hexamer) |
| --- | --- | --- |
| Hfq65-R16A | most diminished |  |
| Hfq65: truncated E. coli Hfq variant lacking the CTD |  | highly active |

From PMC5606850, “Acidic C-terminal domains autoregulate the RNA chaperone Hfq” (eLife, 2017)
